In patent US6288091A, “Antiherpes virus compounds and methods for their preparation and use” (Boehringer Ingelheim Ltd., priority 1999, dated 2001):

What was measured:
HSV-1 strain F or KOS = assay: Inhibition of herpes simplex virus (HSV-1) replication in cell culture (BHK-21 cells, glycoprotein C ELISA); format: cell-based
Procedure: B) Inhibition of Herpes Simplex Virus (HSV-1) Replication in Cell Culture
BHK-21 cells clone 13 (ATCC CCL10) were incubated for two days in 850 cm^2 roller bottles (2×10^7 cells/bottle) with A-MEM medium (Gibco Canada Inc., Burlington, Ontario, Canada) supplemented with 8% (v/v) fetal bovine serum (FBS, Gibco Canada, Inc.). The cells were trypsinized and then 3,000 cells in 100 μL of fresh medium were transferred into each well of a 96-well microtiter plate. The cells were incubated at […] for a period of 3 days to reach a density of 50,000 cells per well. The cells were washed twice with 100 μL of α-MEM supplemented with 2% heat inactivated FBS and incubated for 1-2 hours in 100 μL of the same medium.
Thereafter, the cells were infected with HSV-1 strain F or KOS (multiplicity of infection =0.05 PFU/cell) in 50 μL of α-MEM supplemented with 2% heat inactivated FBS. Following one hour of virus absorption at 37°, the medium was removed and the cells were washed with α-MEM supplemented with 2% heat inactivated FBS (2×100 μL). The cells were incubated with or without 100 μL of the appropriate concentration of test reagent in α-MEM medium supplemented with 2% heat inactivated FBS. After 24 hours of incubation at 37°, the extent of viral replication was determined by an ELISA assay; for instance, the following assay that detects the late glycoprotein C of HSV-1.
Cells were fixed in the microtiter plate with 100 μL of 0.063% glutaraldehyde in phosphate buffered saline for 30 min at room temperature. The microtiter plate was then washed once with casein blocking solution and blocked with 200 μL of the same solution for one hour at room temperature. Thereafter, 100 μL of mAb C11 recognizing the glycoprotein C of HSV-1 (see E. Trybala et al., Journal of General Virology, 1994, 75, 743) was added to each well for two hours at room temperature. The plate was washed three times with phosphate buffered saline containing 0.05% polyoxyethylene (20) sorbitan monooleate. The cells were incubated with 100 μL of sheep anti-mouse IgG horseradish peroxidase for one hour at room temperature in the dark.
The plate was washed three times with 200 μL of the above-noted phosphate buffer saline preparation, and then once with 0.1 M sodium citrate (pH 4.5). Thereafter, 100 μL of orthophenylenediamine dihydrochloride (OPD, Gibco, Canada Inc.) was added to each well. The plate was agitated on a microplate shaker for 30 min in the dark. Color development was monitored at 450 nm using a microplate spectrophotometer.
SAS was used to calculate % inhibition of viral replication and to generate EC50 values.

HCMV (strain AD169) [1] = assay: Inhibition of HCMV replication, ELISA assay (Hs-68 cells); format: cell-based, Human Cytomegalovirus (HCMV); details: read-out: ELISA CMV EC50
Procedure: (§1) C) Inhibition of Human Cytomegalovirus (HCMV) Replication
(§2) The effect of compounds on the replication of HCMV has been measured by using an ELISA-based assay (ELISA) and a plaque reduction assay (PRA).
Hs-68 cells (ATCC # CRL 1635) were seeded in 96 well microtiter plates at 10,000 cells/well in 100 μL of DMEM medium (Gibco Canada Inc.) supplemented with 10% fetal bovine serum (FBS, Gibco Canada Inc.). The plates were incubated for 3 days at 37° to allow the cells to reach 80-90% confluency prior to the assay.
The medium was removed from wells by aspiration. The cells then were infected at a multiplicity of infection (MOI) of 0.01 PFU/cell with 50 μL of HCMV (strain AD169, ATCC VR-538) in DMEM medium supplemented with 5% heat inactivated FBS (assay medium). The virus was allowed to adsorb to cells for 2 h at 37°. Following viral adsorption, the medium was removed from the wells by aspiration. The cells were washed twice with 200 μL of assay medium to remove unabsorbed virus. The cells were then incubated with or without 100 μL of appropriate concentrations of test reagent in assay medium. After 8 days of incubation at 37°, the extent of viral replication was determined by an ELISA assay which detects the late structural protein p28 of HCMV.
Eight days after infection, the medium was aspirated from the wells. Non-specific binding sites were blocked by adding 200 μL of phosphate buffered saline containing 1% (w/v) bovine serum albumin (blocking buffer) to each well and incubating the plates for 30 min at room temperature. After removal of the blocking buffer by aspiration, the cells were fixed with 100 μL of cold ethanol-acetone solution (95:5) per well. The plates were placed at -20° for 30 min. The plates were washed 4 times with phosphate buffered saline containing 0.05% (v/v) polyoxyethylene sorbitan monolaurate (Tween®). Thereafter, 100 μL of mAb UL99 (Advanced Biotechnologies Inc., #13-130-100) recognizing HCMV protein p28 was added to each wells and plates were incubated for 2 h at room temperature. The plates were washed four times with 200 μL of the above-noted phosphate buffered saline/Tween-20® solution. The cells were then incubated with 100 μL of sheep anti-mouse IgGγ horseradish peroxidase conjugated for 2 h at room temperature. The plates were then washed four times with 200 μL of above-noted phosphate buffered saline/Tween-20® solution. Thereafter, 100 μL of ortho phenylenediamine dihydrochloride (OPD, Gibco Canada Inc.) solution was added to each well and the plates were agitated on a microplate shaker for 30 min in the dark. Color development was monitored at 450 nm using a microplate spectrophotometer.
The SAS program was used to calculate the % inhibition of viral replication and to generate EC50 values.
The EC50 values obtained according to this assay method for certain thiazolylphenyl derivatives of this invention are listed in the following tables under the heading ELISA CMV.

HSV-1 helicase-primase = molecular target: T1, HSV-1 helicase-primase (Human herpesvirus 1, UniProt P10189+P10236); assay: HSV-1 DNA-dependent ATPase assay (inhibition of HSV-1 helicase-primase); format: biochemical
T1 construct: made in house; host or cells: Sf21 insect cells triply infected with recombinant baculoviruses (UL5, UL8, UL52)
T1 sequence (P10192 whole entry): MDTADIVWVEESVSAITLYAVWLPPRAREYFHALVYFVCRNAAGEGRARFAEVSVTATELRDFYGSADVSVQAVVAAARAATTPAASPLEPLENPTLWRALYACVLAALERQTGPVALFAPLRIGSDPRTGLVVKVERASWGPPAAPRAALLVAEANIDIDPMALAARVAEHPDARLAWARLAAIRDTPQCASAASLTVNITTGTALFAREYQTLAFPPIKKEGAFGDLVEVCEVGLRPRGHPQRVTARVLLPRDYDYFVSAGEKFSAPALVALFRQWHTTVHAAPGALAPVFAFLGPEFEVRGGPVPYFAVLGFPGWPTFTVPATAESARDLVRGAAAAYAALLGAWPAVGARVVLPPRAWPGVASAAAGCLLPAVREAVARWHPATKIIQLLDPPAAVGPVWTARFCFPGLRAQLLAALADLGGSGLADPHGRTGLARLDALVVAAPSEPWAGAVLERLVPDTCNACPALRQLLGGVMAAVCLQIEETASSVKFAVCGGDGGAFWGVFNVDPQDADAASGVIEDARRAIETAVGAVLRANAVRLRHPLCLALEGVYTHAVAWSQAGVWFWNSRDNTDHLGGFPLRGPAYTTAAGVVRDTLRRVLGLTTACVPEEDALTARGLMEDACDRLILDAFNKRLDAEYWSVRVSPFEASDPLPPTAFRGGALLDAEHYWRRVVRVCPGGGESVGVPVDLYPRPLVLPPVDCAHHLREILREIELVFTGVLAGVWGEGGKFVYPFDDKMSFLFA
T1 sequence (P10236 whole entry): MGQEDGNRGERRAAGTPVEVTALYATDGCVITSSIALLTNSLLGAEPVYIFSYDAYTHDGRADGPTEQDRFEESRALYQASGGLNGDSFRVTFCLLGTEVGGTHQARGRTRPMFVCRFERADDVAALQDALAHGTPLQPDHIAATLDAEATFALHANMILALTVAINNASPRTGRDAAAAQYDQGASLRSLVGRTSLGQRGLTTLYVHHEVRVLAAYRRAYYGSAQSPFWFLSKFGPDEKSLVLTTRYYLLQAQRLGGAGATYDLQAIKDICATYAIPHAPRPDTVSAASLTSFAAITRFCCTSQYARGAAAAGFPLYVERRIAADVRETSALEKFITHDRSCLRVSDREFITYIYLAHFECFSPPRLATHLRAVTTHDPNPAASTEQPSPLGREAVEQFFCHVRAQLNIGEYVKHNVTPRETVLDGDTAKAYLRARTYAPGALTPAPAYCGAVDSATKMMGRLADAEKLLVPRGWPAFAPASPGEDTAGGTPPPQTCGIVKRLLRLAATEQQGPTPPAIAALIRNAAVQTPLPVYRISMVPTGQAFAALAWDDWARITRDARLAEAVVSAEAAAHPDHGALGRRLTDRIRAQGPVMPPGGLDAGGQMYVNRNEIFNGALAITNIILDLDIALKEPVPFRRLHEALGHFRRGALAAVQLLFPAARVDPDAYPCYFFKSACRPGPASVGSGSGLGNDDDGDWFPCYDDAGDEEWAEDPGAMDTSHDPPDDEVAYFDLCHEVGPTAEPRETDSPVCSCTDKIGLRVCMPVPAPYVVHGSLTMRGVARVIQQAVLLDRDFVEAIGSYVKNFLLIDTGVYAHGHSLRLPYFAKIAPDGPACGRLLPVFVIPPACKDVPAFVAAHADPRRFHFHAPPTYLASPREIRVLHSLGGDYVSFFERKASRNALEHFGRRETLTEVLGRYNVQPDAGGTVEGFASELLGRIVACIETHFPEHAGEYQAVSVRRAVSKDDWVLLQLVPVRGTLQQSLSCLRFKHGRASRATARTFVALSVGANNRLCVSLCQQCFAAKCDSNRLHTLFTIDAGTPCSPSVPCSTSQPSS
T1 sequence (P10189 whole entry): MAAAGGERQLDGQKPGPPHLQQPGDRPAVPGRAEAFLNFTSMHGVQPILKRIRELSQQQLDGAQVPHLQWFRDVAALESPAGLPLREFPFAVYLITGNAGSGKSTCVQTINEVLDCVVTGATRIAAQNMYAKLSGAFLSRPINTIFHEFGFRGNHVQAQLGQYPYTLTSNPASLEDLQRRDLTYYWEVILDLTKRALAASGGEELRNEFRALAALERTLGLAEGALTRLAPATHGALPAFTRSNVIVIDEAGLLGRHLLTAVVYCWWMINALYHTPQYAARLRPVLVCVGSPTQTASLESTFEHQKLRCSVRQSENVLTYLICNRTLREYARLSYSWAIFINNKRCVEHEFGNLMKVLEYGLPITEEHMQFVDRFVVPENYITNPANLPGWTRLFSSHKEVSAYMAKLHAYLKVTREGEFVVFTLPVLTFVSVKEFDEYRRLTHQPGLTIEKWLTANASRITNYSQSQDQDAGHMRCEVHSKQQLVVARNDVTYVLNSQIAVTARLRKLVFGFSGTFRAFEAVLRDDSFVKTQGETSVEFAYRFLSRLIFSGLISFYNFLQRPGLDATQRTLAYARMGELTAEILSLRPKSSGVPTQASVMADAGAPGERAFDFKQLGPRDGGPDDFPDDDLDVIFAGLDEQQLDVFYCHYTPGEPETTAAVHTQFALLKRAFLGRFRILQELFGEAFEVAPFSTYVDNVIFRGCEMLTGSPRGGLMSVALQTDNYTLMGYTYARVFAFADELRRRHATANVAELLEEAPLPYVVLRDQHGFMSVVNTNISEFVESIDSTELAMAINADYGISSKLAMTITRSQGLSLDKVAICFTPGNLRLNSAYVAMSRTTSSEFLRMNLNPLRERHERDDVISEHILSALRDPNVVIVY
From the text: A) HSV-1 DNA-Dependent ATP Assay (an in Vitro Assay Based on the Inhibition of HSV-1 Helicase-primase).
HSV-1 helicase-primase holoenzyme was produced in triply infected Sf21 cells using recombinant baculoviruses expressing the UL5, UL8 and UL52 helicase-primase subunits, as described by S. Dracheva et al., J. Biol. Chem. 1995, 270, 14148. The crude enzyme was purified by ammonium sulfate precipitation, Source 15Q® chromatography and Sephacryl® S-300 HR gel filtration (both purification systems can be obtained from Pharmacia Biotech Inc., Montreal, Quebec, Canada), see S. Dracheva et al., supra.
The DNA-dependent ATPase assay, described by J. J. Crute et al., Nucleic Acids Res. 1988, 16, 6585, was modified and used to evaluate the capability of the compounds of Group 1-formula 1 to inhibit HSV-1 helicase-primase activity. The reaction mixtures (80 μL each) contained 40 mM 4-(2-hydroxyethyl)-1-piperazineethanesulfonic acid (HEPES, pH 7.5), 10% (v/v) glycerol, 5.5 mM MgCl2, 1 mM DL-dithiothreitol (DTT), 50 μg/mL acetylated bovine serum albumin, 3.3% (v/v) DMSO, 4 mM ATP, 25 μM single-stranded M13 DNA hybridized to double-tailed 68-mer oligonucleotide and 3 μg/mL HSV-1 helicase-primase. After incubation for 20 min at 34°, formation of inorganic phosphate from hydrolysis of ATP was monitored spectrophotometrically at 650 nm using acidic ammonium molybdate/malachite green reagent, P. A. Lanzetta et al., Anal. Biochem. 1979, 100, 95. DNA-dependent ATPase activity was calculated from the net absorbance change in the presence and absence of inhibition.

HCMV (strain AD169) [2] = assay: Inhibition of HCMV replication, plaque reduction assay (PRA, Hs-68 cells); format: cell-based, Human Cytomegalovirus (HCMV); details: read-out: PRA CMV EC50
Procedure: as §1, §2
Hs-68 cells (ATCC # CRL 1635) were seeded in 12-well plates at 83,000 cells/well in 1 mL of DMEM medium (Gibco Canada Inc.) supplemented with 10% fetal bovine serum (FBS, Gibco Canada Inc.). The plates were incubated for 3 days at 37° to allow the cells to reach 80-90% confluency prior to the assay.
The medium was removed from the cells by aspiration. The cells were then infected with approximately 50 PFU of HCMV (strain AD169, ATCC VR-538) in DMEM medium supplemented with 5% inactivated FBS (assay medium). The virus was allowed to adsorb to cells for 2 h at 37°. Following viral adsorption, the medium was removed from the wells by aspiration. The cells were then incubated with or without 1 mL of appropriate concentrations of test reagent in assay medium. After 4 days of incubation at 37°, the medium was exchanged with fresh medium containing test compound and 4 days later the cells were fixed with 1% aqueous formaldehyde and stained with a 2% crystal violet solution in 20% ethanol in water. Microscopic plaques were counted using a stereomicroscope. Drug effects were calculated as a percent reduction in the number of plaques in the presence of each drug concentration compared to the number observed in the absence of drug. Ganciclovir was used as a positive control in all experiments.
The EC50 values obtained according to this assay for certain thiazolyl derivatives of this invention are listed in the following tables under the heading PRA CMV.

[3] = Human betaherpesvirus 5, AD169, Hs68, Group 1 Table 5 entries
[4] = Human alphaherpesvirus 1, BHK-21, Group 1 Table 1 entries
[5] = Human betaherpesvirus 5, AD169, Hs68, Group 1 Table 1 entries
[6] = Human betaherpesvirus 5, AD169, Hs68, Group 2 Table 1 entries

SMILES	IC50 (HSV-1 helicase-primase; Group 1 Table 1 entries)	EC50 (HCMV (strain AD169) [2]; [5])	also measured
Nc1nc(-c2ccc(NC(=O)[C@@H](Cc3ccccc3)NC(=O)C3CCCCC3)cc2)cs1 [Example 2]			EC50 (HSV-1 strain F or KOS; Human alphaherpesvirus 1, BHK-21, Group 1 Table 5 entries): 0.17 µM; EC50 (HCMV (strain AD169) [1]; [3]): 52 µM
CN(C(=O)CNCc1ccccc1)c1ccc(-c2csc(N)n2)cc1 [Example 3]			IC50 (HSV-1 helicase-primase; Group 1 Table 3 entries): 13 µM; EC50 (HSV-1 strain F or KOS; Human alphaherpesvirus 1, BHK-21, Group 1 Table 3 entries): 4 µM; EC50 (HCMV (strain AD169) [2]; Human betaherpesvirus 5, AD169, Hs68, Group 1 Table 3 entries): 80 µM
Nc1nc(-c2ccc(NC(=O)CNCc3ccc(F)cc3)cc2)cs1 [Example 4]	3.5 µM	16 µM	EC50 (HSV-1 strain F or KOS; [4]): 1.8 µM
Nc1nc(-c2ccc(NC(=O)CCN(Cc3ccccc3)C(=O)c3cccnc3)cc2)cs1 [Example 6]			EC50 (HSV-1 strain F or KOS; Human alphaherpesvirus 1, BHK-21, Group 1 Table 2 entries): 4.8 µM; EC50 (HCMV (strain AD169) [2]; Human betaherpesvirus 5, AD169, Hs68, Group 1 Table 2 entries): 22 µM
Nc1nc(-c2ccc(NC(=O)[C@@H]3CCCN3Cc3ccccc3)cc2)cs1 [Example 7]			EC50 (HSV-1 strain F or KOS; Human alphaherpesvirus 1, BHK-21, Group 1 Table 6 entries): 1.1 µM; EC50 (HCMV (strain AD169) [1]; Human betaherpesvirus 5, AD169, Hs68, Group 1 Table 6 entries): > 33 µM
Nc1nc(-c2ccc(NC(=O)NCCc3ccccc3)cc2)cs1 [Example 13]			IC50 (HSV-1 helicase-primase; Group 2 Table 1 entries): 37 µM; EC50 (HCMV (strain AD169) [2]; [6]): > 4 µM
C#CCNC(=O)Nc1ccc(-c2csc(N)n2)cc1 [Example 17]			IC50 (HSV-1 helicase-primase; Group 2 Table 1 entries): 33 µM; EC50 (HCMV (strain AD169) [2]; [6]): > 74 µM
CN[C@H](Cc1ccccc1)C(=O)Nc1ccc(-c2csc(N)n2)cc1 [Example 18]			IC50 (HSV-1 helicase-primase; Group 1 Table 5 entries): 24.5 µM; EC50 (HCMV (strain AD169) [2]; [3]): > 48 µM
Nc1nc(-c2ccc(NC(=O)CNC(=O)c3ccccn3)cc2)cs1 [Example 19]	13 µM	20 µM	EC50 (HSV-1 strain F or KOS; [4]): 4.5 µM
Nc1nc(-c2ccc(NC(=O)CNC(=O)c3cccnc3)cc2)cs1 [Example 20]	23 µM	60 µM	
Nc1nc(-c2ccc(NC(=O)CNC(=O)c3ccncc3)cc2)cs1 [Example 21]	4.2 µM	> 71 µM	EC50 (HSV-1 strain F or KOS; [4]): 1.3 µM
Nc1nc(-c2ccc(NC(=O)N[C@H](CO)Cc3ccccc3)cc2)cs1 [Example 28]			IC50 (HSV-1 helicase-primase; Group 2 Table 1 entries): 6.6 µM; EC50 (HCMV (strain AD169) [2]; [6]): 30 µM
Nc1nc(-c2ccc(NC(=O)CN(Cc3ccccc3)C(=O)C3CCCCCC3)cc2)cs1 [Example 37]	0.029 µM	> 74 µM	EC50 (HSV-1 strain F or KOS; [4]): 0.002 µM
Nc1nc(-c2ccc(NC(=O)CN(Cc3ccc(Cl)cc3)C(=O)C3CCCCC3)cc2)cs1 [Example 45]	0.05 µM	5.5 µM	EC50 (HSV-1 strain F or KOS; [4]): 0.001 µM
NCC(=O)N(CC(=O)Nc1ccc(-c2csc(N)n2)cc1)Cc1ccccc1 [Example 71]	30 µM	> 32 µM	
Nc1nc(-c2ccc(NC(=O)CN(Cc3ccccc3)C(=O)COc3ccccc3)cc2)cs1 [Example 120]	0.54 µM	15 µM	
Nc1nc(-c2ccc(NC(=O)CN(CCc3ccccc3)C(=O)c3ccncc3)cc2)cs1 [Example 125]	0.159 µM	80 µM	
Cc1ccccc1CN(CC(=O)Nc1ccc(-c2csc(N)n2)cc1)C(=O)Cc1cccs1 [Example 131]		16 µM	
Cc1ccccc1CN(CC(=O)Nc1ccc(-c2csc(N)n2)cc1)C(=O)Cc1ccsc1 [Example 132]		14 µM	
Cc1ccccc1CN(CC(=O)Nc1ccc(-c2csc(N)n2)cc1)C(=O)c1ccsc1 [Example 133]		17 µM	
C[C@@H](c1ccccc1)N(CC(=O)Nc1ccc(-c2csc(N)n2)cc1)C(=O)c1cccnc1 [Example 134]	0.26 µM	18 µM	
C[C@H](c1ccccc1)N(CC(=O)Nc1ccc(-c2csc(N)n2)cc1)C(=O)Cc1ccccn1 [Example 136]	4.2 µM	31 µM	
C[C@H](c1ccccc1)N(CC(=O)Nc1ccc(-c2csc(N)n2)cc1)C(=O)c1ccncc1 [Example 137]	0.98 µM	49 µM	
